Reference: US8901307B2, “Chemical compounds 251” (AstraZeneca AB, priority 2008, dated 2014)
Structures can show the parent of a compound that is named as a salt.

Tests used:
[1] = target: T1, human His-PIM1 [2-313] (Homo sapiens, UniProt P11309); test: PIM1 in-vitro mobility shift assay (Caliper LC3000, FL-Ahx-Bad phosphorylation); type: biochemical; conditions: 1.5 h; percent inhibition at 0.3 uM compound; read-out: PIM1 % I at 0.3 uM
T1 construct: purified human His-PIM1 [2-313] enzyme; His (N); purchased University of Dundee, Scotland; host or cells: baculovirus system
T1 sequence (P11309 2-313): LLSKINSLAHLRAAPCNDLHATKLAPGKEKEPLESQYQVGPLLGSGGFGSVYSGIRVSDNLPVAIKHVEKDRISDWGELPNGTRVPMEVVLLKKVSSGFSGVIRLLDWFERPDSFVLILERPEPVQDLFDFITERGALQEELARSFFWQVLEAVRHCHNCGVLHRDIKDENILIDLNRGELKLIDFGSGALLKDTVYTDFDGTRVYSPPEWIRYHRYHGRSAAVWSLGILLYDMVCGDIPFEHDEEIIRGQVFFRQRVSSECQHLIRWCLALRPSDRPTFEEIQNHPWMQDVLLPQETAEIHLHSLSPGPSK
Procedure, shortened: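 Compound preincubated 20 min at 25 °C with 2.4 nM PIM1, 3.6 µM FL-Ahx-Bad peptide and 240 µM ATP (1.2× mix concentrations). Reaction started with 24 mM MgCl2 mix, run 90 min at 25 °C, EDTA-stopped. Phospho/unphospho peptide separated by microfluidic mobility shift; percent inhibition from ratiometric turnover.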

[2] = target: T2, human His-PIM2 [23-299] (Homo sapiens, UniProt Q9P1W9); test: PIM2 in-vitro mobility shift assay (Caliper LC3000, FL-Ahx-Bad phosphorylation); type: biochemical; conditions: 1.5 h; percent inhibition at 0.3 uM compound; read-out: PIM2 % I at 0.3 uM
T2 construct: purified human His-PIM2 [23-299] enzyme; His (N); host or cells: E. coli
T2 sequence (Q9P1W9 23-299): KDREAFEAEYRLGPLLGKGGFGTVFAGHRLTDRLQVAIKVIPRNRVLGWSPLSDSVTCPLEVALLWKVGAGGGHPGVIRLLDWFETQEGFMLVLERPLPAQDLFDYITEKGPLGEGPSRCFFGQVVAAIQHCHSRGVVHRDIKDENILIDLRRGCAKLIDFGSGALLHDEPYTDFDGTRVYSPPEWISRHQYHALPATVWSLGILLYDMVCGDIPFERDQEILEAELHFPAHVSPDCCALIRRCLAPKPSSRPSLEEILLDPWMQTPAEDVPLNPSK

Structure (SMILES) | inhibition at 0.3 µM [1] [%] | inhibition at 0.3 µM [2] [%]
NC(=O)COc1cccc(/C=C2\SC(=O)NC2=O)c1 [Example 84C, (Z)-2-(3-((2,4-dioxothiazolidin-5-ylidene)methyl)phenoxy)acetamide] | 47.8 | 29.6
O=C1NC(=O)/C(=C/c2n[nH]c3ccccc23)S1 [Example 68, (Z)-5-((1H-indazol-3-yl)methylene)thiazolidine-2,4-dione] | 41.9 | 9
NCCC(=O)N1CCN(c2ncccc2/C=C2\SC(=O)NC2=O)CC1 [Example 90, (Z)-5-((2-(4-(3-aminopropanoyl)piperazin-1-yl)pyridin-3-yl)methylene)thiazolidine-2,4-dione trifluoroacetate] | 78.2 | 86.3
CC(C)(C)N1CCN(c2c(Cl)cc(C(F)(F)F)cc2/C=C2\SC(=O)NC2=O)CC1 [Example 30] | 90.8 | 15.6
O=C(CN1CC[S+]([O-])CC1)N[C@H]1CCN(c2c(Cl)cccc2/C=C2\SC(=O)NC2=O)C1 [Example 142] | 86.1 | 75.2
NCc1ccc(CN[C@@H]2CCCN(c3c(Cl)cccc3/C=C3\SC(=O)NC3=O)C2)cc1 [Example 122R, (R,Z)-5-(2-(3-(4-(aminomethyl)benzylamino)piperidin-1-yl)-3-chlorobenzylidene)thiazolidine-2,4-dione hydrochloride] | > 95 | 89.6
COc1cc(/C=C2\SC(=O)NC2=O)ccc1OCCN1CCCCC1 [Example 59, (Z)-5-(3-methoxy-4-(2-(piperidin-1-yl)ethoxy)benzylidene)thiazolidine-2,4-dione] | < 5 | 6.6
NCCCC(=O)N1CCCN(c2ccccc2/C=C2\SC(=O)NC2=O)CC1 [Example 104, (Z)-5-(2-(4-(4-aminobutanoyl)-1,4-diazepan-1-yl)benzylidene)thiazolidine-2,4-dione hydrochloride] | > 95 | 92.4
COc1cc(/C=C2\SC(=O)NC2=O)c(-c2ccncc2)cc1OC [Example 66, (Z)-5-(4,5-dimethoxy-2-(pyridin-4-yl)benzylidene)thiazolidine-2,4-dione] | 50.3 | 20.9
O=C1NC(=O)/C(=C/c2cn[nH]c2)S1 [Example 71, (Z)-5-((1H-pyrazol-4-yl)methylene)thiazolidine-2,4-dione] | < 5 | < 5
N[C@@H]1CCCN(c2c(/C=C3\SC(=O)NC3=O)cccc2OC2CCC2)C1 [Example 122AD, (R,Z)-5-(2-(3-aminopiperidin-1-yl)-3-cyclobutoxybenzylidene)thiazolidine-2,4-dione hydrochloride] | > 95 | > 95
COc1cc(/C=C2\SC(=O)NC2=O)c(N(C)CCN(C)C)cc1OC [Example 51, (5Z)-5-{2-[[2-(dimethylamino)ethyl](methyl)amino]-4,5-dimethoxybenzylidene}-1,3-thiazolidine-2,4-dione] | 85.5 | 80.6
N[C@@H]1CCCN(c2c(/C=C3\SC(=O)NC3=O)cccc2OCC2CCCCC2)C1 [Example 122K, (R,Z)-5-(2-(3-aminopiperidin-1-yl)-3-(cyclohexylmethoxy)benzylidene)thiazolidine-2,4-dione hydrochloride] | > 95 | > 95
CN(C)C1CCN(c2ccc(N)cc2/C=C2\SC(=O)NC2=O)C1 (stereo not drawn) [Example 151, (Z)-5-(5-amino-2-(3-(dimethylamino)pyrrolidin-1-yl)benzylidene)thiazolidine-2,4-dione] | 31.5 | 13.5
CN1CCN(Cc2cccc(/C=C3\SC(=O)NC3=O)c2)CC1 [Example 84E, (Z)-5-(3-((4-methylpiperazin-1-yl)methyl)benzylidene)thiazolidine-2,4-dione] | 11.7 | 6.1
O=C1NC(=O)/C(=C/c2ccc3cc[nH]c3c2)S1 [Example 79, (5Z)-5-(1H-indol-6-ylmethylene)-1,3-thiazolidine-2,4-dione trifluoroacetate] | 90 | 60.7
O=C1NC(=O)/C(=C/c2cc(C(F)(F)F)cc(Cl)c2N2CCN(Cc3ccncc3)CC2)S1 [Example 17] | 29.8 | < 5

Next, values leading:

inhibition at 0.3 µM [1] [%] | inhibition at 0.3 µM [2] [%] | Structure (SMILES)
> 95 | 58 | NC1CCN(c2c(Cl)cc(C(F)(F)F)cc2/C=C2\SC(=O)NC2=O)CC1 [Example 3]
87.4 | 58.2 | O=C1NC(=O)/C(=C/c2ccccc2N2CCOCC2)S1 [Example 82, (5Z)-5-(2-morpholin-4-ylbenzylidene)-1,3-thiazolidine-2,4-dione]
> 95 | 92.8 | O=C1NC(=O)/C(=C/c2ccccc2N2CCCNCC2)S1 [Example 106, (Z)-5-(2-(1,4-diazepan-1-yl)benzylidene)thiazolidine-2,4-dione hydrochloride]
> 95 | > 95 | COc1cccc(/C=C2\SC(=O)NC2=O)c1N1CC[C@H](N)C1 [Example 96, hydrochloride]
6.6 | 16.4 | O=C1NC(=O)/C(=C/c2ccccc2N2CCN(C(=O)C3CCNCC3)CC2)S1 [Example 91, (Z)-5-(2-(4-(piperidine-4-carbonyl)piperazin-1-yl)benzylidene)thiazolidine-2,4-dione]
93 | 88.1 | COc1cc(/C=C2\SC(=O)NC2=O)c(N2CCC(NCCO)C2)cc1OC (stereo not drawn) [Example 132, (Z)-5-(2-(3-(2-hydroxyethylamino)pyrrolidin-1-yl)-4,5-dimethoxybenzylidene)thiazolidine-2,4-dione]
> 95 | > 95 | CNCCN[C@@H]1CCCN(c2c(Cl)cccc2/C=C2\SC(=O)NC2=O)C1 [Example 122S, (R,Z)-5-(3-chloro-2-(3-(2-(methylamino)ethylamino)piperidin-1-yl)benzylidene)thiazolidine-2,4-dione hydrochloride]
> 95 | 88.4 | N[C@H]1CCN(c2ccc(C(F)(F)F)cc2/C=C2\SC(=O)NC2=O)C1 [Example 88, (S,Z)-5-(2-(3-aminopyrrolidin-1-yl)-5-(trifluoromethyl)benzylidene)thiazolidine-2,4-dione hydrochloride]
> 95 | > 95 | CC(C)Oc1cccc(/C=C2\SC(=O)NC2=O)c1N1CCC[C@@H](N)C1 [Example 122O, (R,Z)-5-(2-(3-aminopiperidin-1-yl)-3-isopropoxybenzylidene)thiazolidine-2,4-dione hydrochloride]
> 95 | > 95 | CN(C)[C@H]1CCN(c2c(Br)cccc2/C=C2\SC(=O)NC2=O)C1 [Example 33, (S,Z)-5-(3-bromo-2-(3-(dimethylamino)pyrrolidin-1-yl)benzylidene)thiazolidine-2,4-dione hydrochloride]
> 95 | > 95 | COc1cc(/C=C2\SC(=O)NC2=O)c(N2CC[C@H](N)C2)cc1OC [Example 101, (S,Z)-5-(2-(3-aminopyrrolidin-1-yl)-4,5-dimethoxybenzylidene)thiazolidine-2,4-dione hydrochloride]
89.4 | 57.3 | COc1cc(/C=C2\SC(=O)NC2=O)c(N2CC[C@@H](N(C)C)C2)cc1OC [Example 39, (R,Z)-5-(2-(3-(dimethylamino)pyrrrolidin-1-yl)-4,5-dimethoxybenzylidene)thiazolidine-2,4-dione]
90.7 | 33.5 | CN(C)C1CCN(c2ccc([N+](=O)[O-])cc2/C=C2\SC(=O)NC2=O)C1 (stereo not drawn) [Example 56, (Z)-5-(2-(3-(dimethylamino)pyrrolidin-1-yl)-5-nitrobenzylidene)thiazolidine-2,4-dione hydrochloride]
> 95 | > 95 | NCCN1CCN(c2ccccc2/C=C2\SC(=O)NC2=O)CC1 [Example 112, (Z)-5-(2-(4-(2-aminoethyl)piperazin-1-yl)benzylidene)thiazolidine-2,4-dione hydrochloride]
> 95 | > 95 | COc1cccc(/C=C2\SC(=O)NC2=O)c1N1CC[C@H](NCCCN)C1 [Example 124]
92.3 | 82.1 | COc1cc(/C=C2\SC(=O)NC2=O)c(N2CCN(C(C)C)CC2)cc1OC [Example 53, (5Z)-5-{2-(4-isopropylpiperazin-1-yl)-4,5-dimethoxybenzylidene}-thiazolidine-2,4-dione]
83.8 | 46.7 | COc1ccc(N2CCC(N(C)C)CC2)c(/C=C2\SC(=O)NC2=O)c1 [Example 44, (5Z)-5-{2-[4-(dimethylamino)piperidin-1-yl]-5-methoxybenzylidene}-1,3-thiazolidine-2,4-dione]
> 95 | > 95 | N[C@H]1CN(c2c(Cl)cccc2/C=C2\SC(=O)NC2=O)CC[C@@H]1O (racemic) [Example 122M, (±)-(Z)-5-(2,3-amino-4-hydroxypiperidin-1-yl)-3-chlorobenzylidene)thiazolidine-2,4-dione hydrochloride]
27.1 | < 5 | COc1cc(/C=C2\SC(=O)NC2=O)c(N2CCC(NC(C)=O)C2)cc1OC (stereo not drawn) [Example 131A]
